Test results reported in patent publication US4514573A, “Isoprenylamine derivatives” (priority 1981, dated 1985).

Key:
vaccinia virus = type: cell-based; conditions: 50 n molar concentration, Vero cells, in vitro
tumor cells KN7 -8 = assay: Anti-tumor activity in mice inoculated with tumor cells; type: in vivo, Balb/c male mice; conditions: 30 mg/kg intraperitoneally, 24 hours before inoculation and on second and fifth day after; 6 mice per group
Excerpt: Groups, each consisting of 6 Balb/c male mice weighing about 20 g, were intraperitoneally administered 5×10^5 of tumor cells KN7 -8.

## CC(C)=CCCC(C)=CCCC(C)=CCCC(C)=CCCC(C)=CCCC(C)=CCCC(C)=CCCC(C)=CCCC(C)=CCNCc1ccc(C)cc1C
Vaccinia virus
  Anti-vaccinia virus activity Plaque inhibition rate %: 9.8%

## COc1ccc(CNCC=C(C)CCCC(C)CCCC(C)CCCC(C)C)cc1OC (stereo not drawn) [drawing 90]
Vaccinia virus
  Anti-vaccinia virus activity Plaque inhibition rate %: 22.0%

## CC(C)=CCCC(C)=CCCC(C)=CCCC(C)=CCCC(C)=CCCC(C)=CCCC(C)=CCCC(C)=CCCC(C)=CCCC(C)=CCNCc1cccc(CN)c1 [drawing 58]
Tumor cells KN7 -8
  Anti-tumor activity (Survivor on the 30th day): 1/6
